Laboratory results as given in patent US20230312481A1, “SUBSTITUTED (PHTHALAZIN-1-YLMETHYL)UREAS, SUBSTITUTED N-(PHTHALAZIN-1-YLMETHYL)AMIDES, AND ANALOGUES THEREOF” (priority 2020, published 2023).
Like-named read-outs stand apart in the source and are kept apart here.

System: HBV rcDNA in HepDE19 cells
Test: HepDE19 assay with bDNA quantitation of HBV rcDNA
Type: cell-based, hepatitis B virus
Settings: read-out: DE-19bDNA EC50
Procedure: HepDE19 Assay With bDNA Quantitation of HBV rcDNA
HepDE19 (50,000 cells/well) were plated in 96-well collagen-coated tissue-culture treated microtiter plates in DMEM/F12 medium supplemented with 10% fetal bovine serum, 1% penicillin-streptomycin and 1 µg/mL tetracycline and incubated in a humidified incubator at 37° C. and 5% CO2 overnight. Next day, the cells were switched to fresh medium without tetracycline and incubated for 4 hours at 37° C. and 5% CO2. […] The final DMSO concentration in the assay was 0.5%. The plates were incubated for 7 days in a humidified incubator at 37° C. and 5% CO2. Following a 7 day-incubation, the level of rcDNA present in the inhibitor-treated wells was measured using a Quantigene 2.0 bDNA assay kit (Affymetrix, Santa Clara, CA) with HBV specific custom probe set and manufacturers instructions. Concurrently, the effect of compounds on cell viability was assessed using replicate plates, plated at a density of 5,000 cells/well and incubated for 4 days, to determine the ATP content as a measure of cell viability using the cell-titer glo reagent (CTG; Promega Corporation, Madison, WI) as per manufacturer’s instructions.
Representative compounds of the disclosure were tested for their abilities to inhibit formation of relaxed circular DNA (rcDNA) in a HepDE19 assay, as described elsewhere herein.

[1] = Hepatitis B virus, HepDE19, 168 h
[2] = HepDE19 cells, 7 day incubation, rcDNA measured by Quantigene 2.0 bDNA assay, top concentration 25 µM
[3] = Hepatitis B virus, HepDE19, 168 h, HepDE19 cells, 7 day incubation, rcDNA measured by Quantigene 2.0 bDNA assay, top concentration 25 µM

SMILES	EC50 [2]	EC50 [3]	further results
CC(C)CN(C(=O)NC1CCCC1)C(C)c1nn(C)c(=O)c2cc(F)c(F)cc12 (racemic) [Compound 35, 3-cyclopentyl-1-(1-(6,7-difluoro-3-methyl-4-oxo-3,4-dihydrophthalazin-1-yl)ethyl)-1-isobutylurea]	–	–	EC50 [1]: 6900 nM
CC(c1n[nH]c(=O)c2cc(F)c(F)cc12)N(C)C(=O)c1ccc2ncoc2c1 (single isomer, unassigned) [Compound 91, N-(1-(6,7-difluoro-4-oxo-3,4-dihydrophthalazin-1-yl)ethyl)-N-methylbenzo[d]oxazole-6-carboxamide]	3860 nM	–	–
CC(C)CN(C(=O)Nc1ccc(F)cc1)C(C)c1nn(C)c(=O)c2ccccc12 (racemic) [Compound 9, 3-(4-fluorophenyl)-1-isobutyl-1-(1-(3-methyl-4-oxo-3,4-dihydrophthalazin-1-yl)ethyl)urea]	–	30 nM	–
C[C@H](c1n[nH]c(=O)c2cc(F)c(F)cc12)N(C)C(=O)Nc1ccc(F)c(Cl)c1 (single isomer, unassigned) [Compound 32]	–	–	EC50 [1]: 21 nM
CCN(C(=O)c1cc2ccccc2[nH]1)C(C)c1n[nH]c(=O)c2cc(F)c(F)cc12 (racemic) [Compound 48, N-(1-(6,7-difluoro-4-oxo-3,4-dihydrophthalazin-1-yl)ethyl)-N-ethyl-1H-indole-2-carboxamide]	–	60 nM	–
CC(c1n[nH]c(=O)c2cc(F)c(F)cc12)N(C)C(=O)c1ccc(C(F)(F)F)c(F)c1 (racemic) [Compound 62, N-(1-(6,7-difluoro-4-oxo-3,4-dihydrophthalazin-1-yl)ethyl)-3-fluoro-N-methyl-4-(trifluoromethyl)benzamide]	–	100 nM	–
CC(c1n[nH]c(=O)c2cc(F)c(F)cc12)N(C)C(=O)[C@@H]1Cc2ccccc2N1 (stereo partly drawn) [Compound 78, (2S)-N-(1-(6,7-difluoro-4-oxo-3,4-dihydrophthalazin-1-yl)ethyl)-N-methylindoline-2-carboxamide]	–	3640 nM	–
CC(C)CN(C(=O)Nc1ccc(F)cc1)C(C)c1n[nH]c(=O)c2ccccc12 (racemic) [Compound 19, 3-(4-fluorophenyl)-1-isobutyl-1-(1-(4-oxo-3,4-dihydrophthalazin-1-yl)ethyl)urea]	–	48 nM	–
CC(c1n[nH]c(=O)c2cc(F)c(F)cc12)N(C)C(=O)c1ccc2scnc2c1 (single isomer, unassigned) [Compound 84, N-(1-(6,7-difluoro-4-oxo-3,4-dihydrophthalazin-1-yl)ethyl)-N-methylbenzo[d]thiazole-5-carboxamide]	> 25000 nM	–	–
CC(c1n[nH]c(=O)c2cc(F)c(F)cc12)N(C)C(=O)c1cc2sc(F)cc2[nH]1 (single isomer, unassigned) [Compound 102, N-(1-(6,7-difluoro-4-oxo-3,4-dihydrophthalazin-1-yl)ethyl)-2-fluoro-N-methyl-4H-thieno[3,2-b]pyrrole-5-carboxamide]	3770 nM	–	–
CC(c1n[nH]c(=O)c2cc(Cl)ccc12)N(C)C(=O)Nc1ccc(F)c(Cl)c1 (racemic) [Compound 12, 3-(3-chloro-4-fluorophenyl)-1-(1-(6-chloro-4-oxo-3,4-dihydrophthalazin-1-yl)ethyl)-1-methylurea]	–	260 nM	–
C[C@@H](c1nn(C)c(=O)c2cc(F)c(F)cc12)N(C)C(=O)Nc1ccc(F)cc1 [Compound 38, (S)(1-(6,7-difluoro-3-methyl-4-oxo-3,4-dihydrophthalazinyl)ethyl)-3-(4-fluorophenyl)methylurea]	–	–	EC50 [1]: 8200 nM
CCN(C(=O)c1cc2c(F)c(F)ccc2[nH]1)C(C)c1n[nH]c(=O)c2cc(F)c(F)cc12 (racemic) [Compound 49, N-(1-(6,7-difluoro-4-oxo-3,4-dihydrophthalazin-1-yl)ethyl)-N-ethyl-4,5-difluoro-1H-indole-2-carboxamide]	–	25 nM	–
CC(c1nn(C)c(=O)c2cc(F)c(F)cc12)N(CCCO)C(=O)Nc1ccc(F)cc1 (racemic) [Compound 26, 1-(1-(6,7-difluoro-3-methyl-4-oxo-3,4-dihydrophthalazin-1-yl)ethyl)-3-(4-fluorophenyl)-1-(3-hydroxypropyl)urea]	–	31 nM	–
CC(C)CN(C(=O)Nc1ccc(F)c(Cl)c1)C(C)c1n[nH]c(=O)c2ccccc12 (racemic) [Compound 2, 3-(3-chloro-4-fluoro-phenyl)-1-isobutyl-1-[1-(4-oxo-3H-phthalazin-1-yl)ethyl]urea]	–	10 nM	–
CC(c1n[nH]c(=O)c2cc(F)c(F)cc12)N(C)C(=O)c1ccc2ccn(C)c2c1 (single isomer, unassigned) [Compound 105, N-(1-(6,7-difluoro-4-oxo-3,4-dihydrophthalazin-1-yl)ethyl)-N,1-dimethyl-1H-indole-6-carboxamide]	1000 nM	–	–
CC(c1n[nH]c(=O)c2cc(F)c(F)cc12)N(C)C(=O)c1ccc2ocnc2c1 (single isomer, unassigned) [Compound 89, N-(1-(6,7-difluoro-4-oxo-3,4-dihydrophthalazin-1-yl)ethyl)-N-methylbenzo[d]oxazole-5-carboxamide]	2420 nM	–	–
CC(c1n[nH]c(=O)c2cc(F)c(F)cc12)N(C)C(=O)c1ccc2ccn(C)c2c1 (single isomer, unassigned) [Compound 104, N-(1-(6,7-difluoro-4-oxo-3,4-dihydrophthalazin-1-yl)ethyl)-N,1-dimethyl-1H-indole-6-carboxamide]	> 25000 nM	–	–
CC(c1n[nH]c(=O)c2cc(F)c(F)cc12)N(C)C(=O)c1ccc2c(c1)CCC2 (single isomer, unassigned) [Compound 83, N-(1-(6,7-difluoro-4-oxo-3,4-dihydrophthalazin-1-yl)ethyl)-N-methyl-2,3-dihydro-1H-indene-5-carboxamide]	80 nM	–	–
CC(c1n[nH]c(=O)c2cc(F)c(F)cc12)N(C)C(=O)c1cc2c(F)c(F)ccc2[nH]1 (racemic) [Compound 54, N-(1-(6,7-difluoro-4-oxo-3,4-dihydrophthalazin-1-yl)ethyl)-4,5-difluoro-N-methyl-1H-indole-2-carboxamide]	–	24 nM	–
CC(c1n[nH]c(=O)c2cc(F)c(F)cc12)N(C)C(=O)c1ccc2c(c1)CCC2 (single isomer, unassigned) [Compound 82, N-(1-(6,7-difluoro-4-oxo-3,4-dihydrophthalazin-1-yl)ethyl)-N-methyl-2,3-dihydro-1H-indene-5-carboxamide]	9010 nM	–	–
CC(c1n[nH]c(=O)c2c(F)cccc12)N(C)C(=O)Nc1ccc(F)c(Cl)c1 (stereo not drawn) [Compound 44, 3-(3-chloro-4-fluorophenyl)-1-(1-(5-fluoro-4-oxo-3,4-dihydrophthalazin-1-yl)ethyl)-1-methylurea]	–	290 nM	–
Cc1c(C(=O)N(C)C(C)c2n[nH]c(=O)c3cc(F)c(F)cc23)[nH]c2ccccc12 (racemic) [Compound 55, N-(1-(6,7-difluoro-4-oxo-3,4-dihydrophthalazin-1-yl)ethyl)-N,3-dimethyl-1H-indole-2-carboxamide]	–	440 nM	–
CC(c1n[nH]c(=O)c2ccccc12)N(C)C(=O)Nc1ccc(F)c(Cl)c1 (single isomer, unassigned) [Compound 4, 3-(3-chloro-4-fluoro-phenyl)-1-methyl-1-[1-(4-oxo-3H-phthalazin-1-yl)ethyl]urea]	200 nM	–	–
CC(c1n[nH]c(=O)c2cc(F)c(F)cc12)N(C)C(=O)c1ccc2ocnc2c1 (single isomer, unassigned) [Compound 88, N-(1-(6,7-difluoro-4-oxo-3,4-dihydrophthalazin-1-yl)ethyl)-N-methylbenzo[d]oxazole-5-carboxamide]	> 25000 nM	–	–
CC(c1n[nH]c(=O)c2cc(F)c(F)cc12)N(C)C(=O)c1ccc2ncsc2c1 (single isomer, unassigned) [Compound 86, N-(1-(6,7-difluoro-4-oxo-3,4-dihydrophthalazin-l-yl)ethyl)-N-methylbenzo[d]thiazole-6-carboxamide]	≥ 25000 nM	–	–
CC(C)CN(C(=O)c1cc2ccccc2[nH]1)C(C)c1n[nH]c(=O)c2cc(F)c(F)cc12 (racemic) [Compound 56, N-(1-(6,7-difluoro-4-oxo-3,4-dihydrophthalazin-l-yl)ethyl)-N-isobutyl-1H-indole-2-carboxamide]	–	390 nM	–
CC(c1n[nH]c(=O)c2cc(Cl)ccc12)N(CCCO)C(=O)Nc1ccc(F)c(Cl)c1 (racemic) [Compound 13, 3-(3-chloro-4-fluorophenyl)-1-(1-(6-chloro-4-oxo-3,4-dihydrophthalazin-1-yl)ethyl)-1-(3-hydroxypropyl)urea]	–	22 nM	–
CC(c1n[nH]c(=O)c2cc(F)c(F)cc12)N(C)C(=O)c1cc(F)c(Br)c(F)c1 (single isomer, unassigned) [Compound 101, 4-bromo-N-(1-(6,7-difluoro-4-oxo-3,4-dihydrophthalazin-1-yl)ethyl)-3,5-difluoro-N-methylbenzamide]	50 nM	–	–
CC(C)CN(C(=O)Nc1ccccc1)C(C)c1nn(C)c(=O)c2cc(F)c(F)cc12 (racemic) [Compound 34, 1-(1-(6,7-difluoro-3-methyl-4-oxo-3,4-dihydrophthalazin-1-yl)ethyl)-1-isobutyl-3-phenylurea]	–	–	EC50 [1]: 10 nM
